Source: patent US8338420B1, “Treatment of Parkinson's disease and enhancement of dopamine signal using PDE 10 inhibitor” (Mitsubishi Tanabe Pharma Corporation, priority 2002, dated 2012)
Blank lines part the entries; values can stand above or below the molecule they belong to.

Tests used:
PDE5 = target: T1, PDE5 (Canis lupus familiaris, UniProt O77746); assay: PDE assay, PDE5 enzyme solution from canine lung; type: biochemical
T1 construct: These were used as a PDE5 enzyme solution for PDE assay; tissue Oriental Yeast (animals); host or cells: canine lung, soluble fraction, DEAE Sepharose fractions
Experimental: In the same manner as in (1-4) above, the supernatant obtained from the homogenate of canine lung tissue was applied to chromatography under FLPC system, to collect eluted fractions of 2 ml each.
Subsequently, the eluted fractions were used as an enzyme solution for PDE assay, and cGMP-hydrolyzing activity was measured for respective fractions, in the presence or absence of E4021, the PDE5 specific inhibitor.
Further, for examining contamination of PDE1, which is adjacently eluted, cGMP-hydrolyzing PDE activity of the respective fractions were measured in the same assay buffer containing EGTA (final concentration of 1 mM) [or calcium chloride (final concentration of 2 mM) and calmodulin (40 units/ml)].
These fractions were collected and glycerol was added thereto to become 50%, and the mixture was stored at −20° C. These were used as a PDE5 enzyme solution for PDE assay.

PDE1 = assay: PDE assay, PDE1 enzyme solution from rat ventricle; type: biochemical, SD rat; conditions: E4021 100 nM
Experimental: Ventricle was excised from SD rat anesthetized with sodium pentobarbital (Nihon SLC, about 300 g), and washed with 100 ml of ice-cold saline 3 times. After the tissues were cut in approximately 1 g, it was frozen by liquid nitrogen, and stored at −80° C.
To about 5 g of this tissue sample was added 16 ml of an ice-cold homogenization buffer I, and the resultant mixture was homogenized by Polytron homogenizer for 3 minutes. The homogenate was centrifuged at 8000 rpm, at 4° C. for 20 minutes, and the obtained supernatant was further centrifuged by an ultracentrifuge at 50000 rpm, at 4° C. for 60 minutes. The resultant supernatant was stored at 4° C. […]
Subsequently, the eluted fractions were used as an enzyme solution for PDE assay. […] (final concentration of 1 mM) or calcium chloride (final concentration of 2 mM) and calmodulin (40 unit s/ml), and cGMP-hydrolyzing activity was measured.
For these PDE1 containing fractions, cGMP hydrolyzing activities were analyzed in the presence of E4021 (100 nM), PDE5 specific inhibitor, it was shown that the cGMP-hydrolyzing activities in these fractions were not inhibited by E4021. […]
Further, in the presence or absence of unlabeled cGMP, cAMP-PDE activities were measured for each of the fractions. […]
Still further, in the presence of rolipram (10 μm), the PDE4 specific inhibitor, cAMP hydrolyzing activities were measured for each of the fractions. […]

PDE2 = target: T2, PDE2 (Bos taurus, UniProt P14099); assay: PDE assay, PDE2 enzyme solution from bovine adrenal gland; type: biochemical, Japanese Black Cattle
T2 construct: tissue Tokyo Shibaura Zoki; host or cells: bovine adrenal gland, soluble fraction, ion-exchange fractions
T2 sequence (P14099 1-921): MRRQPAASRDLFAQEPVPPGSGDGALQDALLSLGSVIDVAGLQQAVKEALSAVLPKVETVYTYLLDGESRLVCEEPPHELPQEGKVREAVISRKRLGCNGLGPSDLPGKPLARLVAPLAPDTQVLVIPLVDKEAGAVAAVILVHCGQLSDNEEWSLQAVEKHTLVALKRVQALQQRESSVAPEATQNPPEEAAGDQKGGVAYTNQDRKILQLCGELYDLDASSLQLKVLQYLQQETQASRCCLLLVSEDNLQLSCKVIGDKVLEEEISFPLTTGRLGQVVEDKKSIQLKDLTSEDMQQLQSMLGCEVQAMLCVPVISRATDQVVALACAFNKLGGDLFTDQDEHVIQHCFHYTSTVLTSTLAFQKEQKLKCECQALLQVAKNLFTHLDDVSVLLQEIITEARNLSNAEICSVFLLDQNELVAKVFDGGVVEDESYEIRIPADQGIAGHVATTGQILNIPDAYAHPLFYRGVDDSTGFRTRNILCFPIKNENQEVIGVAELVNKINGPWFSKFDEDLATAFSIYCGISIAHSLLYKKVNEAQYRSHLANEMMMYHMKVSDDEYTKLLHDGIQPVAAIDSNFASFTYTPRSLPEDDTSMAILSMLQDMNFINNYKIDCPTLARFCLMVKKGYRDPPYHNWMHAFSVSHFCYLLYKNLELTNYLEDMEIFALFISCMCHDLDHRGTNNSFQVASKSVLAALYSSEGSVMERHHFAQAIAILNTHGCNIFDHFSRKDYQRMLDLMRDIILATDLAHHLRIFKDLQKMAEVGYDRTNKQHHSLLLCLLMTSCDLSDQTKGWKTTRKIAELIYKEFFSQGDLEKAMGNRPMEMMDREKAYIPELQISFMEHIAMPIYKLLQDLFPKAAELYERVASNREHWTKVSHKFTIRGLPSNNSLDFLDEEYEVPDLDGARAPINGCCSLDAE
Experimental: One adrenal gland of Japanese Black Cattle, purchased from Tokyo Shibaura Zoki, co., Ltd. was washed with 100 ml of ice-cold saline (0.9% sodium chloride) twice. Subsequently, the tissues were cut into about 1 gram, and it was frozen by liquid nitrogen. To about 2 g of this tissue sample was added 10 ml of an ice-cold homogenization buffer II (25 mM Tris-HCl, pH 7.5, 4 mM magnesium chloride, 0.5 mM EGTA, 2 mM dithiothreitol, 4 mM benzamidine, 0.1 mM phenylmethylsulfonyl fluoride), and the homogenate that was homogenized by Polytron homogenizer for 3 minutes was centrifuged at 8000 rpm, at 4° C. for 20 minutes, and the obtained supernatant was further centrifuged by an ultracentrifuge at 50000 rpm, at 4° C. for 60 minutes. The resultant supernatant was stored at 4° C.
(§1) This supernatant was applied to chromatography under the FPLC system, in the same manner as in Example 1 (1) above. […]
Subsequently, the eluted fractions were used as an enzyme solution for PDE assay, and cGMP-hydrolyzing activity was measured. Or, cAMP-hydrolyzing activity was measured for respective fractions, in the presence or absence of unlabeled cGMP. […]

PDE4 = assay: PDE assay, PDE4 enzyme solution from dog lung; type: biochemical, mixed-breed dog
Experimental: These fractions were collected and glycerol was added thereto to become 50%, and the mixture was stored at −20° C.

PDE3 = target: T3, PDE3 (Canis lupus familiaris, UniProt A0A8I3NYE0); assay: PDE assay, PDE3 enzyme solution from dog ventricle; type: biochemical, mixed-breed dog
T3 sequence (A0A8I3NYE0 1-1135): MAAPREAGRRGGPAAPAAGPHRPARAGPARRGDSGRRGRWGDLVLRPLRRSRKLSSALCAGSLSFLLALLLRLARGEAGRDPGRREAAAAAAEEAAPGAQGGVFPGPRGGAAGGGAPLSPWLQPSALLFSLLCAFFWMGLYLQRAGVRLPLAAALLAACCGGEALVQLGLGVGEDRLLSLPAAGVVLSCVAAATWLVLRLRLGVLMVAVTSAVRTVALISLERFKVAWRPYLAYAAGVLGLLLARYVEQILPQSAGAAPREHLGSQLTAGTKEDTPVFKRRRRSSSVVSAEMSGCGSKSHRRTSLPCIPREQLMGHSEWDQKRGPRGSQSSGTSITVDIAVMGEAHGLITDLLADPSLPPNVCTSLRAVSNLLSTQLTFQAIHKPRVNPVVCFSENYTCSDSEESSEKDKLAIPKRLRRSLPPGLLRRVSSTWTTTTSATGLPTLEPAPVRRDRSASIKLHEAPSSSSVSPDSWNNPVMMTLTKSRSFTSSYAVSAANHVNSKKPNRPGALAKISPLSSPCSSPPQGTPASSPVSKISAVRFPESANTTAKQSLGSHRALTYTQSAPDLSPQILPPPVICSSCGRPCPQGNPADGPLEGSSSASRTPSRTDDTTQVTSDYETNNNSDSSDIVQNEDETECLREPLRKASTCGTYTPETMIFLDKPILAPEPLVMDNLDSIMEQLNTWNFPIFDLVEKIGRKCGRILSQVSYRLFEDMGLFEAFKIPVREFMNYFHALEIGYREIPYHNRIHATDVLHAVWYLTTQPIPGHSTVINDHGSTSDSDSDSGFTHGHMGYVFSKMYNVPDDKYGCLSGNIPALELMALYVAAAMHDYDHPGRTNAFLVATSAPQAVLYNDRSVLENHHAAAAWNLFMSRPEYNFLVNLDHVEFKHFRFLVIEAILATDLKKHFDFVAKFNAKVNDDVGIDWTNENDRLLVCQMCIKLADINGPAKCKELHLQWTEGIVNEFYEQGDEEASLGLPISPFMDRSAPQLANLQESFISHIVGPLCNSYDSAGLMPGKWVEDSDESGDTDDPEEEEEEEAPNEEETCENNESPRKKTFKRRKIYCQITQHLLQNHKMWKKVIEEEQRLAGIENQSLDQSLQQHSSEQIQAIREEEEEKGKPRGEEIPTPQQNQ
Experimental: Apex portion of ventricle of mixed-breed dog (Oriental Yeast) was excised, and washed with 500 ml of ice-cold saline three times. Subsequently, the tissues were cut into about 3 g, and it was frozen by liquid nitrogen, and stored at −80° C. To about 1 g of this tissue sample was added 10 ml of an ice-cold homogenization buffer II, and the resultant mixture was homogenized by Polytron homogenizer for 3 minutes. The homogenate was centrifuged at 8000 rpm, at 4° C. for 20 minutes, and the obtained supernatant was further centrifuged by an ultracentrifuge at 40000 rpm, at 4° C. for 60 minutes. The resultant supernatant was stored at 4° C.
as §1
Subsequently, the eluted fractions were used as an enzyme solution for PDE assay, and cGMP-hydrolyzing activity was measured. Further, cAMP-hydrolyzing activity was measured for respective fractions, in the presence or absence of unlabeled cGMP. […]

Compound: CCCCCC[C@@H]([C@@H](C)O)n1cnc2c(N)ncnc21 (racemic) [EHNA, erythro-9-(2-hydroxy-3-nonyl)adenine, reference compound]
PDE activity of PDE2 enzyme solution in the presence of inhibitor (PDE2): inhibited

Compound: Cc1[nH]c(=O)c(C#N)cc1-c1ccncc1 [milrinone]
PDE activity of PDE3 enzyme solution in the presence of inhibitor (PDE3): inhibited

Other lines, results leading:

PDE activity of PDE5 enzyme solution in the presence of inhibitor (PDE5): inhibited
Compound: CCCc1nn(C)c2c(=O)[nH]c(-c3cc(S(=O)(=O)N4CCN(C)CC4)ccc3OCC)nc12 [sildenafil, reference compound]

cGMP-hydrolyzing activity of PDE1 containing fractions in the presence of inhibitor (PDE1): not inhibited
Compound: O=C(O)C1CCN(c2nc(NCc3ccc4c(c3)OCO4)c3cc(Cl)ccc3n2)CC1 [Compound E4021, reference compound]

PDE activity of PDE4 enzyme solution in the presence of inhibitor (PDE4): inhibited
Compound: COc1ccc(C2CNC(=O)C2)cc1OC1CCCC1 (centres unmarked) [rolipram, reference compound]
